Counter-ions that a name gives are not always drawn.
Tested on: relapsed AML cells
Test: Drug sensitivity assay, 1,536-well, 3-day culture with individual approved drugs at 10 μM, viability by alamarBlue
Assay type: cell-based, human
Conditions: number of relapsed AML cases out of 18 tested with >70% cell death; 10 μM, 3-day culture
How it was run: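 Three-day exposure of primary AML cells to individual drugs in 1,536-well format, viability read as percent live cells. Cells were thawed, cultured overnight, sorted by FACS for viable blasts and plated at 4,000-4,500 cells/5 μL in cytokine-supplemented IMDM/BIT medium.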

CCC[C@H](Nc1nc(-c2ccc(NC(=O)NCC)c(OC)c2)ncc1C)c1cccnc1 [LEXIBULIN]
#Cases >70% cell death: 13

CCCCCCCCCCC[C@@H](C[C@@H]1OC(=O)[C@H]1CCCCCC)OC(=O)[C@H](CC(C)C)NC=O [ORLISTAT]
#Cases >70% cell death: 9

O=C(/C=C/c1ccc(CN(CCO)CCc2c[nH]c3ccccc23)cc1)NO [LAQ-824]
#Cases >70% cell death: 18

CN1CCN(c2ccc3nc(-c4c(N)c5c(F)cccc5[nH]c4=O)[nH]c3c2)CC1 [GFKI-258]
#Cases >70% cell death: 16

CCCCCCCCNC(C)C(O)c1ccc(SC(C)C)cc1 (stereo not shown) [SULOCTIDIL]
#Cases >70% cell death: 12

CC1(C)CC(=O)c2c(C(F)(F)F)nn(-c3ccc(C(N)=O)c(N[C@H]4CC[C@H](O)CC4)c3)c2C1 [PF-04928473]
#Cases >70% cell death: 18

BENZALKONIUM CHLORIDE
#Cases >70% cell death: 15

CCC(=O)OCC(=O)[C@@]1(OC(=O)CC)[C@@H](C)C[C@H]2[C@@H]3CCC4=CC(=O)C=C[C@]4(C)[C@@]3(Cl)[C@@H](O)C[C@@]21C [BECLOMETHASONE DIPROPIONATE]
#Cases >70% cell death: 1

C[C@H]1O[C@@H](O[C@H]2[C@@H](O)C[C@H](O[C@H]3[C@@H](O)C[C@H](O[C@H]4CC[C@@]5(C)[C@H](CC[C@@H]6[C@@H]5CC[C@]5(C)[C@@H](C7=CC(=O)OC7)CC[C@]65O)C4)O[C@@H]3C)O[C@@H]2C)C[C@H](O)[C@@H]1O [DIGITOXIN]
#Cases >70% cell death: 18

N#C[C@@H]1C[C@@H]2C[C@@H]2N1C(=O)[C@@H](N)C12CC3CC(CC(O)(C3)C1)C2 [SAXAGLIPTIN]
#Cases >70% cell death: 1

COc1cc2nccc(Oc3ccc(NC(=O)C4(C(=O)Nc5ccc(F)cc5)CC4)cc3)c2cc1OC [CABOZANTINIB]
#Cases >70% cell death: 2

CCC(=O)O[C@]1(C(=O)CCl)[C@@H](C)C[C@H]2[C@@H]3CCC4=CC(=O)C=C[C@]4(C)[C@@]3(F)[C@@H](O)C[C@@]21C [CLOBETASOL PROPIONATE]
#Cases >70% cell death: 4

O=C(CCCCCCC(=O)Nc1ccccc1)NO [VORINOSTAT]
#Cases >70% cell death: 18

Cn1cnc([N+](=O)[O-])c1Sc1ncnc2nc[nH]c12 [AZATHIOPRINE]
#Cases >70% cell death: 10

CC(C)(C)[C@]1(O)CCN2C[C@H]3c4ccccc4CCc4cccc(c43)[C@@H]2C1.Cl [(−)-BUTACLAMOL HCL]
#Cases >70% cell death: 3

Oc1c(Cl)cc(Cl)c2cccnc12 [CHLOROXINE]
#Cases >70% cell death: 1

C#Cc1cccc(Nc2ncnc3cc(OCCOC)c(OCCO)cc23)c1 [OSI-420]
#Cases >70% cell death: 3

CCOc1ccc2nc(S(N)(=O)=O)sc2c1 [ETHOXZOLAMIDE]
#Cases >70% cell death: 2

CC[C@H]1OC(=O)[C@H](C)[C@@H](O[C@H]2C[C@@](C)(OC)[C@@H](O)[C@H](C)O2)[C@H](C)[C@@H](O[C@@H]2O[C@H](C)C[C@H](N(C)C)[C@H]2O)[C@](C)(O)C[C@@H](C)CN(C)[C@H](C)[C@@H](O)[C@]1(C)O [AZITHROMYCIN]
#Cases >70% cell death: 1

CCn1cc(C(=O)O)c(=O)c2cnc(N3CCCC3)nc21 [PIROMIDIC ACID]
#Cases >70% cell death: 5

CC(C)(C)CC(C)(C)c1ccc(OCCOCC[N+](C)(C)Cc2ccccc2)cc1 [BENZETHONIUM CHLORIDE]
#Cases >70% cell death: 16

CCN(CCCc1ccccc1)CCCc1ccccc1 [ALVERINE CITRATE]
#Cases >70% cell death: 4

Nc1nc(F)nc2c1ncn2[C@@H]1O[C@H](CO)[C@@H](O)[C@@H]1O [FLUDARABINE]
#Cases >70% cell death: 16

COc1cc(C(=O)NCc2ccc(OCCN(C)C)cc2)cc(OC)c1OC [TRIMETHOBENZAMIDE HYDROCHLORIDE]
#Cases >70% cell death: 1

Clc1ccccc1CN1CCc2sccc2C1 [TICLOPIDINE]
#Cases >70% cell death: 1

CN(C)c1ccc2nc3ccc(=[N+](C)C)cc-3sc2c1 [METHYLENE BLUE]
#Cases >70% cell death: 18

C[C@@H]1C[C@@H]([C@H](O)CC2CC(=O)NC(=O)C2)C(=O)[C@@H](C)C1 [CYCLOHEXIMIDE]
#Cases >70% cell death: 18

CC(=O)c1ccc2c(c1)N(CCCN(C)C)c1ccccc1S2 [ACEPROMAZINE MALEATE]
#Cases >70% cell death: 2

BLEOMYCIN
#Cases >70% cell death: 2

COc1cc(NC(C)CCCN)c2ncccc2c1 (stereo not shown) [PRIMAQUINE]
#Cases >70% cell death: 12

CCC1=C[C@@H]2CN(C1)Cc1c([nH]c3ccccc13)[C@@](C(=O)OC)(c1cc3c(cc1OC)N(C)[C@H]1[C@@](O)(C(=O)OC)[C@H](OC(C)=O)[C@]4(CC)C=CCN5CC[C@]31[C@@H]54)C2 [VINORELBINE]
#Cases >70% cell death: 16

CC1=C(/C=C/C(C)=C/C=C/C(C)=C/C(=O)Nc2ccc(O)cc2)C(C)(C)CCC1 [FENRETINIDE]
#Cases >70% cell death: 9

N=C(N)c1ccc(OCCCCCOc2ccc(C(=N)N)cc2)cc1 [PENTAMIDINE]
#Cases >70% cell death: 2

CCCCc1oc2ccc(NS(C)(=O)=O)cc2c1C(=O)c1ccc(OCCCN(CCCC)CCCC)cc1 [DRONEDARONE]
#Cases >70% cell death: 12

COc1c(C)c2c(c(O)c1C/C=C(\C)CCC(=O)OCCN1CCOCC1)C(=O)OC2 [MYCOPHENOLATE MOFETIL]
#Cases >70% cell death: 5

C[C@@H]1C[C@H]2[C@@H]3CCC4=CC(=O)C=C[C@]4(C)[C@@]3(F)[C@@H](O)C[C@]2(C)[C@@]1(O)C(=O)CO [DEXAMETHASONE]
#Cases >70% cell death: 2

S=c1nc[nH]c2nc[nH]c12 [MERCAPTOPURINE]
#Cases >70% cell death: 10

OC(Cn1cncn1)(Cn1cncn1)c1ccc(F)cc1F [FLUCONAZOLE]
#Cases >70% cell death: 1

AMONAFIDE MALATE
#Cases >70% cell death: 8

CC(=O)Nc1ccc(C(=O)Nc2ccccc2N)cc1 [TACEDINALINE]
#Cases >70% cell death: 4

CN(C)/N=N/c1[nH]cnc1C(N)=O [DACARBAZINE]
#Cases >70% cell death: 14

C#CCC(Cc1cnc2nc(N)nc(N)c2n1)c1ccc(C(=O)N[C@@H](CCC(=O)O)C(=O)O)cc1 (stereo partly shown) [PRALATREXATE(FOLOTYN, PRALATREXATE]
#Cases >70% cell death: 5

COc1ccc2c(c1)/C(=C/c1cnc[nH]1)C(=O)N2 [SU-9516]
#Cases >70% cell death: 1

CC[C@@H](C(=O)[C@@H](C)[C@@H](O)[C@H](C)CCc1ccc(C)c(O)c1C(=O)O)[C@H]1O[C@](CC)([C@H]2CC[C@](O)(CC)[C@H](C)O2)C[C@@H]1C [LASALOCID SODIUM]
#Cases >70% cell death: 10

CC[C@@H](C(=O)O)[C@@H]1O[C@@H]([C@@H](C)[C@H](O)[C@H](C)C(=O)[C@H](CC)[C@H]2O[C@]3(C=C[C@@H](O)[C@]4(CC[C@@](C)([C@H]5CC[C@](O)(CC)[C@H](C)O5)O4)O3)[C@H](C)C[C@@H]2C)[C@@H](C)C[C@@H]1C [NARASIN]
#Cases >70% cell death: 8

Nc1nc2nc[nH]c2c(=S)[nH]1 [TIOGUANINE (6-thioguanine), TIOGUANINE]
#Cases >70% cell death: 16

N#CC[C@H](C1CCCC1)n1cc(-c2ncnc3[nH]ccc23)cn1 [RUXOLITINIB]
#Cases >70% cell death: 6

EPRINOMECTIN
#Cases >70% cell death: 5

COc1cccc2c1C(=O)c1c(O)c3c(c(O)c1C2=O)C[C@@](O)(C(C)=O)C[C@@H]3O[C@H]1C[C@H](N)[C@H](O)[C@H](C)O1 [DAUNORUBICIN]
#Cases >70% cell death: 18

CC(C)(C)c1nc(-c2cccc(NS(=O)(=O)c3c(F)cccc3F)c2F)c(-c2ccnc(N)n2)s1 [DABRAFENIB]
#Cases >70% cell death: 4

IFENPRODIL TARTRATE
#Cases >70% cell death: 4

CC(C)C[C@H](NC(=O)[C@H](Cc1ccccc1)NC(=O)c1cnccn1)B(O)O [BORTEZOMIB]
#Cases >70% cell death: 18

Reference: US20210405025A1, “IDENTIFYING COMPOUNDS FOR TREATING CANCER AND USE THEREOF” (THE UAB RESEARCH FOUNDATION, priority 2018, published 2021)
